Target: Serine/threonine-protein kinase pim-2 (Homo sapiens, UniProt Q9P1W9)
Assay: Inhibition of Pim2 kinase

Serine/threonine-protein kinase pim-2, sequence (Q9P1W9 whole entry): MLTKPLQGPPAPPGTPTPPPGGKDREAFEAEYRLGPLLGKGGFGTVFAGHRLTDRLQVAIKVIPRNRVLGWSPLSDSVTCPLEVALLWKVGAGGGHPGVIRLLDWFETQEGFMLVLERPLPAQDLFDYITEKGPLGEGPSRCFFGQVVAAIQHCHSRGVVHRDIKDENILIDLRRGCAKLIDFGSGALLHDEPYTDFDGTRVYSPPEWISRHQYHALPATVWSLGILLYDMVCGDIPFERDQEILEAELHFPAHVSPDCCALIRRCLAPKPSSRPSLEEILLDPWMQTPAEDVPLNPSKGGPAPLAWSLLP

| IC50 [µM] | SMILES |
| --- | --- |
| > 20 | N#Cc1c(-c2ccccc2)cc(-c2cc(Br)ccc2O)[nH]c1=O |

Target: Serine/threonine-protein kinase pim-1 (Homo sapiens, UniProt P11309)
Assay: Inhibition of Pim1 kinase

Serine/threonine-protein kinase pim-1, sequence (P11309 whole entry): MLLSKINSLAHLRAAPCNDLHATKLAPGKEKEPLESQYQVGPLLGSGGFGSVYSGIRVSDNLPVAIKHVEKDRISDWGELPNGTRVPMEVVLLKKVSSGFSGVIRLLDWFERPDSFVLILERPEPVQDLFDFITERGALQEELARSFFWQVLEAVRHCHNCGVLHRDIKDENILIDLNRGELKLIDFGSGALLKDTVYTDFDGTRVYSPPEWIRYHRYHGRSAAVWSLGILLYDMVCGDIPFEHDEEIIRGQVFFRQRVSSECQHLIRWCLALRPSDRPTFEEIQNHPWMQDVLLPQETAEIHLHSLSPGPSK

| IC50 [µM] | SMILES |
| --- | --- |
| 0.34 | Cc1ccc(O)c(-c2cc(-c3ccccc3)c(C#N)c(=O)[nH]2)c1 |
| 0.37 | Cc1ccc(O)c(-c2cc(-c3ccccc3)[nH]c(=O)c2C#N)c1 |
| 4.41 | N#Cc1c(-c2ccccc2)cc(-c2ccc(O)cc2)nc1N |
| 0.92 | N#Cc1c(-c2ccc(Cl)cc2)c2c([nH]c1=O)-c1ccccc1OC2 |
| 1.23 | N#Cc1c(-c2ccccc2Cl)c2c([nH]c1=O)-c1ccccc1OC2 |
| 1.03 | CCc1ccc(O)c(-c2cc(-c3cccc(Cl)c3)c(C#N)c(=O)[nH]2)c1 |
| 1.14 | COc1ccc(-c2cc(C(F)(F)F)c(C#N)c(=O)[nH]2)cc1Br |
| > 20 | N#Cc1c(-c2ccncc2)c2c([nH]c1=O)-c1ccccc1CC2 |
| > 20 | N#Cc1c(-c2ccccn2)c2c([nH]c1=O)-c1ccccc1OC2 |
| 4.79 | N#Cc1c(-c2cccnc2)c2c([nH]c1=O)-c1ccccc1SC2 |
| 20 | N#Cc1c(-c2ccccc2Cl)c2c([nH]c1=O)-c1ccccc1SC2 |
| > 20 | CCOC(=O)C1=C2C(=O)Oc3ccccc3C2N(C)C(=O)C1 (stereo not given) |
| > 20 | N#Cc1c(-c2ccc(F)cc2)c2c([nH]c1=O)-c1ccccc1SC2 |
| 0.43 | N#Cc1c(-c2ccc(O)cc2)cc(-c2ccccc2O)[nH]c1=O |
| > 20 | COc1ccc(-c2c3c([nH]c(=O)c2C#N)-c2ccccc2OC3)cc1 |
| 1.77 | Nc1n[nH]c2nc(-c3cc(Br)ccc3O)cc(-c3ccccc3)c12 |
| 20 | N#Cc1c(-c2ccncc2)c2c([nH]c1=O)-c1ccccc1OC2 |

Target: Dual specificity mitogen-activated protein kinase kinase 2 (Homo sapiens, UniProt P36507)
Sequence (P36507 whole entry): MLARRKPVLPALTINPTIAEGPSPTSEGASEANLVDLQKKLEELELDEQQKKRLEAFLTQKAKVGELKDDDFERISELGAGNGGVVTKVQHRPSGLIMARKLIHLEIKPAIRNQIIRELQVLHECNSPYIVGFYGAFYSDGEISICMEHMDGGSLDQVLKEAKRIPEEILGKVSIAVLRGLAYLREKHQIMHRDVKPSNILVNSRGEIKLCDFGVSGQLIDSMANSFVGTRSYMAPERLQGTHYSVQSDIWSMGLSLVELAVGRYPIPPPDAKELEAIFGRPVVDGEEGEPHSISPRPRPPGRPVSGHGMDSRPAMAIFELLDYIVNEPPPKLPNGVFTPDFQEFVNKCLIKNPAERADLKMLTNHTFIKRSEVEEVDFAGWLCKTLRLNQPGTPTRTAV
Assay: Inhibition of MEK2 kinase

| IC50 [µM] | SMILES |
| --- | --- |
| > 20 | N#Cc1c(-c2ccccc2)cc(-c2cc(Br)ccc2O)[nH]c1=O |

Target: Dual specificity mitogen-activated protein kinase kinase 1 (Homo sapiens, UniProt Q02750)
Sequence (Q02750 whole entry): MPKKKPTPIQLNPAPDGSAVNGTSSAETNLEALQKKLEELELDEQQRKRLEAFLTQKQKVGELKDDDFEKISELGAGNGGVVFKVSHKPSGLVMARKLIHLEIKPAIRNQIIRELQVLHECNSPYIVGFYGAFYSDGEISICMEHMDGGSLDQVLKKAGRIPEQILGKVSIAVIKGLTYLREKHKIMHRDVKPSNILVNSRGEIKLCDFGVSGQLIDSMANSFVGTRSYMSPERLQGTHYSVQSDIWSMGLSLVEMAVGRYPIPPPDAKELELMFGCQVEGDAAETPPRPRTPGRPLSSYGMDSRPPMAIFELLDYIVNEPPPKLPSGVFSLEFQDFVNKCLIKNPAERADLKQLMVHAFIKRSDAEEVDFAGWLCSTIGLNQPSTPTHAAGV
Assay: Inhibition of MEK1 kinase

| IC50 [µM] | SMILES |
| --- | --- |
| > 20 | N#Cc1c(-c2ccccc2)cc(-c2cc(Br)ccc2O)[nH]c1=O |

Source: ChEMBL document CHEMBL1139114, “Identification and structure-activity relationships of substituted pyridones as inhibitors of Pim-1 kinase” (Bioorg Med Chem Lett, 2007)
